Our source for the EC50 values is patent US20240376048A1 (Celgene Corporation, priority 2021, published 2024).

This assay addresses S1P5 (Homo sapiens, UniProt Q9H228). As to the kind of experiment: [35S]-GTPγS binding assay (S1P5 agonism), CHO cell membranes. In kind it is biochemical. The note with it: membranes of CHO cells expressing recombinant S1P5 receptors, measure of S1P5 agonism. On the procedure: CHO cells expressing recombinant S1P5 receptors were cultured in 500 cm^2 culture trays and, once confluent, rinsed and detached with cell-lifting buffer (10 mM HEPES, 154 mM NaCl, 6.85 mM EDTA, pH 7.4). Cells were then pelleted by centrifugation, resuspended, and homogenized in membrane preparation buffer (10 mM HEPES and 10 mM EDTA, pH 7.4) using a Polytron PT 1200E homogenizer (Kinematica, Luzern, Switzerland). Cellular proteins were pelleted by centrifugation at 48,000×g at 4° C. for 30 minutes. The resulting supernatant was discarded, and the pellet was re-suspended again in membrane preparation buffer, homogenized for a second time, and then centrifuged again as described above. The final cellular protein pellet was suspended in ice cold resuspension buffer (10 mM HEPES and 0.1 mM EDTA, pH 7.4), divided into aliquots, and stored at −80° C. until use.
Functional binding assays for [^35S]-GTPγS were performed in 96-well non-binding surface plates with a final volume of 200 μL. The test compounds were serially diluted in DMSO and added to assay plates using a Tecan D300E digital printer with a total volume of […]. The control sphingosine-1-phosphate (S1P) was prepared separately by preparing a 400 μM stock solution from a 100 nmol pellet of S1P in 10 mM Na2CO3 with 2% […]. The serial dilution of S1P was done using complete assay buffer (20 mM HEPES, 10 mM MgCl2, 100 mM NaCl, 1 mM EDTA, 0.1% fatty acid free bovine serum albumin (BSA), and 30 μg/mL saponin, pH 7.4) and transferred to wells already containing 0.4 μL DMSO. All the wells were then loaded to a total volume of 40 μL of complete assay buffer, except the non-specific binding (NSB) wells. For NSB wells, 40 μL/well of 50 μM GTPγS (Sigma Aldrich, cat #G8634, St. Louis, MO) was added to wells containing 0.4 μL of DMSO. The assay was started by the addition of 120 μL/well of CHO-SlP receptor membrane solution containing 40 μg/mL of membrane protein, 16.67 μM guanosine diphosphate (GDP; Sigma Aldrich, cat #G7127, St. Louis, MO), and 2.5 mg/mL of WGA PVT SPA beads in complete buffer. Assay plates were then sealed and incubated at room temperature with gentle agitation for 30 minutes. Next, 40 µL/well of 1 nM of [^35S]-GTPγS (PerkinElmer, cat #NEG030X25OUC, Waltham, MA) in basic assay buffer (20 mM HEPES, 10 mM MgCl2, 100 mM NaCl, and 1 mM EDTA, pH7.4) was added to the assay plates to yield a final concentration of 200 pM and the plates were further incubated for 40 minutes at room temperature with gentle agitation. The assay was terminated by centrifugation of the plates at 1000 rpm for 3 minutes using an Eppendorf 5810R centrifuge (Eppendorf, Hamburg, Germany) and G protein bound radioactivity was quantitated using a MicroBeta2 microplate scintillation counter (PerkinElmer, Waltham, MA). As G protein bound radioactivity directly correlates to receptor activation and coupling to the G protein, this assay is a measure of S1P5 agonism.
For orientation: GTPγS is a poorly hydrolysed GTP analogue; its binding reports G protein activation.

SMILES strings stand for the structures. pEC50: −log10 of the molar value.

The pEC50 is the negative decadic logarithm of the EC50, by convention in mol/L.

Sequence of S1P5 (Q9H228 whole entry, species assumed): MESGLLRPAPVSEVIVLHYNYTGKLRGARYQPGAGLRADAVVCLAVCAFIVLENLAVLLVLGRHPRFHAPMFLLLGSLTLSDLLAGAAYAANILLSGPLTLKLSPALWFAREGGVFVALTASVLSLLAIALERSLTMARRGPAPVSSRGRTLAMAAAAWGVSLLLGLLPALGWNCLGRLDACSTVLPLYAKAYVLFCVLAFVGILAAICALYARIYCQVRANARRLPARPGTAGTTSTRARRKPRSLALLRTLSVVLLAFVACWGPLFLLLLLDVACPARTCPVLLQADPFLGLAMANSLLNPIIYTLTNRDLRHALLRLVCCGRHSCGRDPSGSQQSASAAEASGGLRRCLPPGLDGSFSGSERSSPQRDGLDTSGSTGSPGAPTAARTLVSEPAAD

For `O=C(O)[C@H]1CCN(C2CCc3cc(OCc4c(Cl)cccc4Cl)ccc32)C1` (single isomer, unassigned) [Compound 24a], the pEC50 was 7.00 to 8.00.
In the case of `O=C(O)[C@H]1CCN(C2CCc3cc(OCc4c(Cl)cccc4Cl)ccc32)C1` (single isomer, unassigned) [Compound 24b] it was 8.00 to 9.00.
Take `O=C(O)[C@@H]1CCN(C2CCc3cc(OCc4c(Cl)cccc4Cl)ccc32)C1` (single isomer, unassigned) [Compound 25a]: the pEC50 is 8.00 to 9.00.
In the case of `O=C(O)[C@@H]1CCN(C2CCc3cc(OCc4c(Cl)cccc4Cl)ccc32)C1` (single isomer, unassigned) [Compound 25b] it was 8.00 to 9.00; in that of `O=C(O)C1CCN(C2CCc3cc(OCc4cccc(C(F)(F)F)c4)ccc32)CC1` (single isomer, unassigned) [Compound 26a, 1-(5-((3-(trifluoromethyl)benzyl)oxy)-2,3-dihydro-1H-inden-1-yl)piperidine-4-carboxylic acid], 7.00 to 8.00.
Consider `O=C(O)C1CCN(C2CCc3cc(OCc4cccc(C(F)(F)F)c4)ccc32)CC1` (single isomer, unassigned) [Compound 26b, 1-(5-((3-(trifluoromethyl)benzyl)oxy)-2,3-dihydro-1H-inden-1-yl)piperidine-4-carboxylic acid], for which the pEC50 is 6.00 to 7.00.
Consider `Cc1ccc(COc2ccc3c(c2)CCC3N2CC(C(=O)O)C2)cc1Cl` (stereo not drawn) [Compound 1, 1-(5-((3-chloro-4-methylbenzyl)oxy)-2,3-dihydro-1H-inden-1-yl)azetidine-3-carboxylic acid], for which the pEC50 is 8.00 to 9.00.
In the case of `Cc1ccc(COc2ccc3c(c2)CCC3N2CC(C(=O)O)C2)cc1C(F)(F)F` (stereo not drawn) [Compound 2, 1-(5-((4-methyl-3-(trifluoromethyl)benzyl)oxy)-2,3-dihydro-1H-inden-1-yl)azetidine-3-carboxylic acid] it was 7.00 to 8.00.
In the case of `Cc1ccc(COc2ccc3c(c2)CCC3N2CC(C(=O)O)C2)c(Cl)c1` (stereo not drawn) [Compound 3, 1-(5-((2-chloro-4-methylbenzyl)oxy)-2,3-dihydro-1H-inden-1-yl)azetidine-3-carboxylic acid] it was 8.00 to 9.00; in that of `Cc1ccc(COc2ccc3c(c2)CCC3N2CC(C(=O)O)C2)c(F)c1` (stereo not drawn) [Compound 4, 1-(5-((2-fluoro-4-methylbenzyl)oxy)-2,3-dihydro-1H-inden-1-yl)azetidine-3-carboxylic acid], 7.00 to 8.00.
Consider `CC(C)Oc1ccc(COc2ccc3c(c2)CCC3N2CC(C(=O)O)C2)cc1C(F)(F)F` (stereo not drawn) [Compound 5, 1-(5-((4-isopropoxy-3-(trifluoromethyl)benzyl)oxy)-2,3-dihydro-1H-inden-1-yl)azetidine-3-carboxylic acid], for which the pEC50 was 8.00 to 9.00.
In the case of `CC(C)Oc1ccc(COc2ccc3c(c2)CCC3N2CC(C(=O)O)C2)cc1C#N` (stereo not drawn) [Compound 6, 1-(5-((3-cyano-4-isopropoxybenzyl)oxy)-2,3-dihydro-1H-inden-1-yl)azetidine-3-carboxylic acid] it was 7.00 to 8.00.
In the case of `O=C(O)C1CN(C2CCc3cc(OCc4ccc(C5CC5)cc4F)ccc32)C1` (stereo not drawn) [Compound 7, 1-(5-((4-cyclopropyl-2-fluorobenzyl)oxy)-2,3-dihydro-1H-inden-1-yl)azetidine-3-carboxylic acid] it was 7.00 to 8.00; in that of `O=C(O)C1CN(C2CCc3cc(OCc4ccc(C5CC5)cc4Cl)ccc32)C1` (stereo not drawn) [Compound 8, 1-(5-((2-chloro-4-cyclopropylbenzyl)oxy)-2,3-dihydro-1H-inden-1-yl)azetidine-3-carboxylic acid], 7.00 to 8.00.
For the compound `O=C(O)C1CN(C2CCc3cc(OCc4ccc(C5CC5)c(C(F)(F)F)c4)ccc32)C1` (stereo not drawn) [Compound 9, 1-(5-((4-cyclopropyl-3-(trifluoromethyl)benzyl)oxy)-2,3-dihydro-1H-inden-1-yl)azetidine-3-carboxylic acid], the negative logarithm of the EC50 (pEC50) was 8.00 to 9.00.
In the case of `O=C(O)C1CN(C2CCc3cc(OCc4ccc(C5CC5)c(Cl)c4)ccc32)C1` (stereo not drawn) [Compound 10, 1-(5-((3-chloro-4-cyclopropylbenzyl)oxy)-2,3-dihydro-1H-inden-1-yl)azetidine-3-carboxylic acid] it was 7.00 to 8.00.
On to `O=C(O)C1CN(C2CCc3cc(OCc4ccccc4F)ccc32)C1` (stereo not drawn) [Compound 11, 1-(5-((2-fluorobenzyl)oxy)-2,3-dihydro-1H-inden-1-yl)azetidine-3-carboxylic acid], for which the pEC50 was 7.00 to 8.00.
`O=C(O)C1CN(C2CCc3cc(OCc4cccc(F)c4)ccc32)C1` (stereo not drawn) [Compound 12, 1-(5-((3-fluorobenzyl)oxy)-2,3-dihydro-1H-inden-1-yl)azetidine-3-carboxylic acid]: the pEC50 is 7.00 to 8.00.
In the case of `O=C(O)C1CN(C2CCc3cc(OCc4ccc(F)cc4)ccc32)C1` (stereo not drawn) [Compound 13, 1-(5-((4-fluorobenzyl)oxy)-2,3-dihydro-1H-inden-1-yl)azetidine-3-carboxylic acid] it was 7.00 to 8.00; in that of `O=C(O)C1CN(C2CCc3cc(OCc4ccc(F)cc4F)ccc32)C1` (stereo not drawn) [Compound 14, 1-(5-((2,4-difluorobenzyl)oxy)-2,3-dihydro-1H-inden-1-yl)azetidine-3-carboxylic acid], 7.00 to 8.00; in that of `O=C(O)C1CN(C2CCc3cc(OCc4cc(F)ccc4F)ccc32)C1` (stereo not drawn) [Compound 15, 1-(5-((2,5-difluorobenzyl)oxy)-2,3-dihydro-1H-inden-1-yl)azetidine-3-carboxylic acid], 7.00 to 8.00.
In the case of `O=C(O)C1CN(C2CCc3cc(OCc4ccc(F)c(Cl)c4)ccc32)C1` (stereo not drawn) [Compound 16, 1-(5-((3-chloro-4-fluorobenzyl)oxy)-2,3-dihydro-1H-inden-1-yl)azetidine-3-carboxylic acid] it was 7.00 to 8.00.
With `O=C(O)C1CN(C2CCc3cc(OCc4cc(F)c(F)cc4F)ccc32)C1` (stereo not drawn) [Compound 17, 1-(5-((2,4,5-trifluorobenzyl)oxy)-2,3-dihydro-1H-inden-1-yl)azetidine-3-carboxylic acid], the pEC50 is 8.00 to 9.00.
Turning to `O=C(O)C1CN(C2CCc3cc(OCc4cc(F)cc(F)c4F)ccc32)C1` (stereo not drawn) [Compound 18, 1-(5-((2,3,5-trifluorobenzyl)oxy)-2,3-dihydro-1H-inden-1-yl)azetidine-3-carboxylic acid], the pEC50 was 7.00 to 8.00.
In the case of `O=C(O)C1CN(C2CCc3cc(OCc4ccc(F)c(F)c4)ccc32)C1` (stereo not drawn) [Compound 19, 1-(5-((3,4-difluorobenzyl)oxy)-2,3-dihydro-1H-inden-1-yl)azetidine-3-carboxylic acid] it was 7.00 to 8.00.
In the case of `O=C(O)C1CN(C2CCc3cc(OCc4cccc(I)c4)ccc32)C1` (stereo not drawn) [Compound 20, 1-(5-((3-iodobenzyl)oxy)-2,3-dihydro-1H-inden-1-yl)azetidine-3-carboxylic acid] it was 7.00 to 8.00.
For `O=C(O)C1CN(C2CCc3cc(OCc4ccc(I)cc4)ccc32)C1` (stereo not drawn) [Compound 21, 1-(5-((4-iodobenzyl)oxy)-2,3-dihydro-1H-inden-1-yl)azetidine-3-carboxylic acid], the pEC50 was 6.00 to 7.00.
In the case of `O=C(O)[C@H]1[C@@H]2CN(C3CCc4cc(OCc5c(Cl)cccc5Cl)ccc43)C[C@@H]21` (stereo partly drawn) [Compound 22, (1R,5S,6r)-3-(5-((2,6-dichlorobenzyl)oxy)-2,3-dihydro-1H-inden-1-yl)-3-azabicyclo[3.1.0]hexane-6-carboxylic acid] it was 6.00 to 7.00; in that of `O=C(O)[C@@H]1[C@@H]2CN(C3CCc4cc(OCc5c(Cl)cccc5Cl)ccc43)C[C@@H]21` (stereo partly drawn) [Compound 23, (1R,5S,6s)-3-(5-((2,6-dichlorobenzyl)oxy)-2,3-dihydro-1H-inden-1-yl)-3-azabicyclo[3.1.0]hexane-6-carboxylic acid], 8.00 to 9.00; in that of `O=C(O)C1CC2(C1)CN(C1CCc3cc(OCc4c(Cl)cccc4Cl)ccc31)C2` (stereo not drawn) [Compound 27, 2-(5-((2,6-dichlorobenzyl)oxy)-2,3-dihydro-1H-inden-1-yl)-2-azaspiro[3.3]heptane-6-carboxylic acid], 8.00 to 9.00.
